Assay results: ChEMBL document CHEMBL1128826, “Heteroatom effect in the PKC inhibitory activities of perhydroazepine analogs of balanol” (Bioorg Med Chem Lett, 1995)

Experiments:
[1] = biological target: Protein kinase C alpha type (Homo sapiens, UniProt P17252); assay: Inhibition of human Protein kinase C alpha
[2] = biological target: Protein kinase C delta type (Homo sapiens, UniProt Q05655); assay: Inhibition of human Protein kinase C delta
[3] = biological target: T1, Protein kinase C beta type (Homo sapiens, UniProt P05771); assay: Inhibition of human Protein kinase C beta 2
[4] = biological target: Protein kinase C eta type (Homo sapiens, UniProt P24723); assay: Inhibition of human protein kinase C eta
[5] = biological target: T2, Protein kinase C epsilon type (Homo sapiens, UniProt Q02156); assay: Inhibition of human Protein kinase C epsilon
T2 sequence (Q02156 whole entry): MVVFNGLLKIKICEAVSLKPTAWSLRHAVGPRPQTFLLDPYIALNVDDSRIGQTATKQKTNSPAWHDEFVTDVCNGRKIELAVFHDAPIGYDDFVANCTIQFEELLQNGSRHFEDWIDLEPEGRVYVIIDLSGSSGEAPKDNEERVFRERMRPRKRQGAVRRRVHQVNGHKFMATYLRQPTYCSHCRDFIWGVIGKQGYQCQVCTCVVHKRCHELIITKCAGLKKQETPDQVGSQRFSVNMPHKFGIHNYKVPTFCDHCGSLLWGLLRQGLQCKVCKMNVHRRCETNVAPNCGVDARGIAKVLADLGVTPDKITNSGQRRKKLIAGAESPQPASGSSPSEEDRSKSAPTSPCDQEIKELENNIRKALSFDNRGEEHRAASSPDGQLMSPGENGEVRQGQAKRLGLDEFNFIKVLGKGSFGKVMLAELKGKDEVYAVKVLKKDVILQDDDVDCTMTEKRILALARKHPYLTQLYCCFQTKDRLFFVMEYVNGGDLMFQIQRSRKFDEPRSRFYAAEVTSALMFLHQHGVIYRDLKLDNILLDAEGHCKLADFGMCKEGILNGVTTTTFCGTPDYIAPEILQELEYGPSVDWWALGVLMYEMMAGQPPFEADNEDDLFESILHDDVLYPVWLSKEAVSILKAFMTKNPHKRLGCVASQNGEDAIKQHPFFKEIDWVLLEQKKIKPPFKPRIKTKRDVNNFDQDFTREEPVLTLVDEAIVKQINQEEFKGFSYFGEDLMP

[6] = biological target: Protein kinase C gamma type (Homo sapiens, UniProt P05129); assay: Inhibition of human Protein kinase C gamma
[7] = biological target: T1, Protein kinase C beta type; assay: Inhibition of human Protein kinase C beta 1
[8] = biological target: T3, Protein kinase C zeta type (Homo sapiens, UniProt Q05513); assay: Inhibition of Protein kinase C zeta
T3 sequence (Q05513 whole entry): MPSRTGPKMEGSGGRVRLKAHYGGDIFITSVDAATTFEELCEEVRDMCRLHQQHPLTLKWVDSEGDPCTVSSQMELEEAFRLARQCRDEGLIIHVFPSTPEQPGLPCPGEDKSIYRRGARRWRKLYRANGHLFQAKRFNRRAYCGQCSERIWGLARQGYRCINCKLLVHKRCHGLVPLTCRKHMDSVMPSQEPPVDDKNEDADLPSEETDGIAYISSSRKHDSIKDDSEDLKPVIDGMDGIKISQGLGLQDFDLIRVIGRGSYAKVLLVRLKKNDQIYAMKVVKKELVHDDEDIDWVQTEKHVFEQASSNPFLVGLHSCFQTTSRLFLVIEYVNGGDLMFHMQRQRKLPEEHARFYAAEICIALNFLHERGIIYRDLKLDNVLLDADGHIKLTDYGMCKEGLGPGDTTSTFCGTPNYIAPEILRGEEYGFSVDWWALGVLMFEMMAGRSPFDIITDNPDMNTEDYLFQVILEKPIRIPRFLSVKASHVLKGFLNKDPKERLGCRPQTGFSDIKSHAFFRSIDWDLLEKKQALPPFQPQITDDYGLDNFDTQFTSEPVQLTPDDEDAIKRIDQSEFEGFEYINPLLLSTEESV

T1 sequence (P05771 whole entry): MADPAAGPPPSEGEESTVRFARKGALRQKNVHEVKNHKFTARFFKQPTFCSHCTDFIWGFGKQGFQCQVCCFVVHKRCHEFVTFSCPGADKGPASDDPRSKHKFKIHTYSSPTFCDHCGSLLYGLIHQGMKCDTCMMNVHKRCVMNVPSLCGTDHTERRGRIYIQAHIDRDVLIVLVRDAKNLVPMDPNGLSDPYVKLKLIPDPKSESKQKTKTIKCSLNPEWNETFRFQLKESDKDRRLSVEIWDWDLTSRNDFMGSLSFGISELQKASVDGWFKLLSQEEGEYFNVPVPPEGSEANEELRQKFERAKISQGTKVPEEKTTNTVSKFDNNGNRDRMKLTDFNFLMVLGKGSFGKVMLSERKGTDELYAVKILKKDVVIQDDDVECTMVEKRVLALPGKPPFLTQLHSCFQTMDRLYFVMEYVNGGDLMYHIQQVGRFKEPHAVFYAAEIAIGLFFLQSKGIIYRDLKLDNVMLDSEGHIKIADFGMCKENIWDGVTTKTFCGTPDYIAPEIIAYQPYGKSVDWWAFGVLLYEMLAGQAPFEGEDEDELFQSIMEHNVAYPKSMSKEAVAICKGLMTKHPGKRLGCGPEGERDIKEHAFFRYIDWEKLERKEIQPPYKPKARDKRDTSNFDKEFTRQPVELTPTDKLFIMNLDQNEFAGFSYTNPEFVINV
Sequence of Protein kinase C delta type (Q05655 whole entry): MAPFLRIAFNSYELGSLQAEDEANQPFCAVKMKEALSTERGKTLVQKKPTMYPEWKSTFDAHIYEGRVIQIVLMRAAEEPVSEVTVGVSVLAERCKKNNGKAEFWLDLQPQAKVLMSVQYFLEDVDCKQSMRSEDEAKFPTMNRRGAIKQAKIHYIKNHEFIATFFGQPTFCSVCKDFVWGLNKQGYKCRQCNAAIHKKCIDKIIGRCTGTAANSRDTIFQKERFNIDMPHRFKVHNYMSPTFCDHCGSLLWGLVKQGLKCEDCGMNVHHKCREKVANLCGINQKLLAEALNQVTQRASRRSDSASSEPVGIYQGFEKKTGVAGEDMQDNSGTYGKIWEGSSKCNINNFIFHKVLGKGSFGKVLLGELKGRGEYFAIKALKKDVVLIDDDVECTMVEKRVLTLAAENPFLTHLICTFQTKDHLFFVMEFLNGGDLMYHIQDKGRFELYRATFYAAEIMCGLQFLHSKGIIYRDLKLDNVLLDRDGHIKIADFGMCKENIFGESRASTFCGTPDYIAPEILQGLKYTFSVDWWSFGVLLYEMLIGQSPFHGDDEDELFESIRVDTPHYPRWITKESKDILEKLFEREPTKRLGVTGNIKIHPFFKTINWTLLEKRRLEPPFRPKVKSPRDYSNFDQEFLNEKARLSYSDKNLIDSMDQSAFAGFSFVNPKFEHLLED
Sequence of Protein kinase C eta type (P24723 whole entry): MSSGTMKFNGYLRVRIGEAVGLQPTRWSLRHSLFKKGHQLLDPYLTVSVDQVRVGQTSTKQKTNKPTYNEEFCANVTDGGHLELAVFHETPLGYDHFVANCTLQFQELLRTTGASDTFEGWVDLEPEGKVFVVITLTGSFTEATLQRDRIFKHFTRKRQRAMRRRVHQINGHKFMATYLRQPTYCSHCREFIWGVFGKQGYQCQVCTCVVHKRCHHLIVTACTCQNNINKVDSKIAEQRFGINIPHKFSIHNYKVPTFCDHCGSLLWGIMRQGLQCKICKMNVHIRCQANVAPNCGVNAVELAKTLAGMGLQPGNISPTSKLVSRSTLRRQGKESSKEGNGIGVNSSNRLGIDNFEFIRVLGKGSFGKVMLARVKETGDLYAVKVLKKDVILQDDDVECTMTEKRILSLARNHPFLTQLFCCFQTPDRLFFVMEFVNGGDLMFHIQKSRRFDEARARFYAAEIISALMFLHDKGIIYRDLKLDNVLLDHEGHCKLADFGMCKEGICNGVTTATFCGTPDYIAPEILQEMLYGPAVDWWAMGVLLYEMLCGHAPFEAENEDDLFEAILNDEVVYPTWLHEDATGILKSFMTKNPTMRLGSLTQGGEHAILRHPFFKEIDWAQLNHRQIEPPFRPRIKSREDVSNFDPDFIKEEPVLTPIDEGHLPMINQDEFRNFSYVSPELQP

Row | Structure (SMILES) | IC50 [1] [nM] | IC50 [2] [nM] | IC50 [3] [nM] | IC50 [4] [nM] | IC50 [5] [nM] | IC50 [6] [nM] | IC50 [7] [nM] | IC50 [8] [nM]
1 | O=C(N[C@H]1CSCCC[C@H]1OC(=O)c1cc(O)c(C(=O)c2c(O)cccc2C(=O)O)c(O)c1)c1ccc(O)cc1 | 3300 | 90 | 2400 | 100 | 5900 | 1000 | 3800 | 
2 | O=C(N[C@H]1COCCC[C@H]1OC(=O)c1cc(O)c(C(=O)c2c(O)cccc2C(=O)O)c(O)c1)c1ccc(O)cc1 | 6700 | 90 | 3300 | 10 | 16000 | 1000 | 2500 | > 150000
3 | O=C(N[C@H]1CS(=O)(=O)CCC[C@H]1OC(=O)c1cc(O)c(C(=O)c2c(O)cccc2C(=O)O)c(O)c1)c1ccc(O)cc1 | 9600 | 4000 | 3600 | 830 | 45000 | 4300 | 5200 | > 150000

The remaining molecules from weak to strong by IC50 [1], led by results:

Row | IC50 [1] [nM] | IC50 [2] [nM] | IC50 [3] [nM] | IC50 [4] [nM] | IC50 [5] [nM] | IC50 [6] [nM] | IC50 [7] [nM] | IC50 [8] [nM] | Structure (SMILES)
4 | 270 | 90 | 430 | 60 | 280 | 60 | 220 | > 150000 | O=C(N[C@H]1CCCCC[C@H]1OC(=O)c1cc(O)c(C(=O)c2c(O)cccc2C(=O)O)c(O)c1)c1ccc(O)cc1
5 | 74 | 32 | 44 | 22 |  | 34 | 32 | 3500 | O=C(N[C@H]1CNCCC[C@H]1OC(=O)c1cc(O)c(C(=O)c2c(O)cccc2C(=O)O)c(O)c1)c1ccc(O)cc1 (racemic)
